A value given as a limit tells only on which side of the number the result lay.

Data set [1] deals with spontaneously hypertensive rats. Description: mean arterial blood pressure in spontaneously hypertensive rats after oral dosing. Particulars: 50 mg/kg orally, compared to vehicle-treated controls, approximate. In kind it is in vivo. As to the method: Further, spontaneously hypertensive rats were treated with a suspension or solution of 3-mercapto-4-benzyl-5-n- heptyl-1,2,4-triazole at a dose of 50 mg/kg orally, and mean arterial blood pressure was monitored for 260 minutes using indwelling cannulae in the tail arteries. […] Maximal blood pressure reduction was approximately 10 to 35 mm Hg.

The conditions of data set [2]: Teresawa et al., Japan Cir. J. 35, 339 (1971); cited from earlier work.

For `CCCCCCCc1nnc(S)n1Cc1ccccc1` [Example 35, 3-Mercapto-4-benzyl-5-n-heptyl-1,2,4-triazole], the “time after treatment to significant blood pressure reductions” value in data set [1] was no more than 30 min.
Regarding `CCCCc1ccc(C(=O)O)nc1` [fusaric acid], in data set [2], the toxic effect result is on record as “hepatotoxic”.

The values above are taken from EP0323737A1, “4-Aralkyl-5-substituted-1,2,4-triazole-5-thiols” (SMITHKLINE BECKMAN CORPORATION, priority 1987, dated 1989).
